Patent US8530652B2, “Pyrrolopyrazoles, potent kinase inhibitors” (Agouron Pharmaceuticals, Inc., priority 2005, dated 2013)

Each molecule was assayed against PAK4 kinase domain (PAK4 KD) (Homo sapiens (Human), UniProt O96013) (assay: PAK4 kinase domain enzymatic assay (coupled PK/LDH, NADH absorbance at 340 nm)). Conditions: PAK4 kinase domain, 25 nM PAK4 KD, 0.04 mM ATP, pH 7.5.
Assay type: biochemical
Source text: Cloning, expression, and purification of recombinant PAK4 Kinase domain (PAK4 KD): The cDNA coding for PAK4 was amplified from the EST clone (#12) (purchased from Research Genetics) by using PCR. […] The PCR amplified product was cloned into Topo vector (Invitrogen Inc.), and verified by DNA sequencing. PAK4 KD was then subcloned into expression plasmid pET28a(+), pET24a(+), or pGST4.5. The recombinant plasmids containing PAK4 KD was transformed into BL21(DE3) cells for recombinant protein expression. […] The cells were then harvested and lyzed for protein purification. Ni-NTA column (pET28a(+), pET24a(+)) and glutathione column (pGST4.5) were used for the purification.
PAK4 kinase domain enzymatic assay conditions: the enzymatic activity of PAK4 KD was measured by its ability to catalyze the transfer of a phosphate residue from a nucleoside triphosphate to an amino acid side chain of a commercially available peptide (amino acid sequence […]). The conversion of ATP to ADP accompanies the catalytic reaction. The PAK4 KD catalyzed production of ADP from ATP was coupled to the oxidation of NADH through the activities of pyruvate kinase (PK) and lactate dehydrogenase (LDH). The conversion of NADH to NAD^+ is monitored by the decrease in absorbance at 340 nm (e340=6.22 cm^−1mM^−1) using a Molecular Devices SPECTRAMAX 190 in conjunction with the Biomec FX. Typical reaction solutions contain 2 mM phosphoenolpyruvate, 0.35 mM NADH, 10 mM MgCl2, 1 mM DTT, 0.4 mM peptide ([…]) 0.04 mM ATP, 1 units/mL PK, 1 units/mL LDH, 0.01% Tween 20 in 50 mM HEPES, pH 7.5. […] The PAK KD Ki of each compound of the invention (the inhibitor) was calculated based on multiple of Percent Inhibition numbers of the inhibitor at different inhibitor concentrations. The peptide (amino sequence […]) was purchased from American Peptide Company. NADH, MgCl2, HEPES, DTT, ATP and PK/LDH were purchased from Sigma. Tween 20 was purchased from Calbiochem.

PAK4 kinase domain (PAK4 KD), sequence (O96013 321-572): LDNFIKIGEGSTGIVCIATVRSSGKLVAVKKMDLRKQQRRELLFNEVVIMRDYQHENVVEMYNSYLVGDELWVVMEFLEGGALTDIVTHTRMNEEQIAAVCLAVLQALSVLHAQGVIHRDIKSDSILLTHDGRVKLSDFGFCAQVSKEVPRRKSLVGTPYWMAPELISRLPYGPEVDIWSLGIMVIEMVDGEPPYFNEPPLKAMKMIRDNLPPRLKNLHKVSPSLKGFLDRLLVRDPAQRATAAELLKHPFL

In order of falling Ki:
1. Cc1ncnc(Nc2n[nH]c3c2CN(C(=O)N2C[C@@H]4CCCN4C[C@@H]2C)C3(C)C)c1F [Example 82, N-(5-fluoro-6-methylpyrimidin-4-yl)-6,6-dimethyl-5-{[(3S,8aS)-3-methylhexahydropyrrolo[1,2-a]pyrazin-2(1H)-yl]carbonyl}-1,4,5,6-tetrahydropyrrolo[3,4-c]pyrazol-3-amine]  2500 nM
2. CC1(C)c2[nH]nc(Nc3ncncc3F)c2CN1C(=O)N[C@H]1C[C@@H]1c1ccccc1 (relative stereo) [Example 48, 3-[(5-fluoropyrimidin-4-yl)amino]-6,6-dimethyl-N-[trans-2-phenylcyclopropyl]-4,6-dihydropyrrolo[3,4-c]pyrazole-5(1H)-carboxamide]  1000 nM
3. CSc1nc(Nc2n[nH]c3c2CN(C(=O)N[C@@H]2C[C@H]2c2ccccc2)C3(C)C)cc(C(F)(F)F)n1 (relative stereo) [Example 11, 6,6-dimethyl-3-{[2-(methylthio)-6-(trifluoromethyl)pyrimidin-4-yl]amino}-N-[trans-2-phenylcyclopropyl]-4,6-dihydropyrrolo[3,4-c]pyrazole-5(1H)-carboxamide]  960 nM
4. CN(C)C[C@@H](NC(=O)N1Cc2c(Nc3ncnc4c3ncn4C)n[nH]c2C1(C)C)c1ccccc1 [Example 57, N-[(1S)-2-(dimethylamino)-1-phenylethyl]-6,6-dimethyl-3-[(9-methyl-9H-purin-6-yl)amino]-4,6-dihydropyrrolo[3,4-c]pyrazole-5(1H)-carboxamide]  940 nM
5. CC1(C)c2[nH]nc(Nc3cc(C(F)(F)F)ccn3)c2CN1C(=O)N[C@H]1C[C@@H]1c1ccccc1 (relative stereo) [Example 25, 3-[(4-trifluoromethylpyridin-2-yl)amino]-6,6-dimethyl-N-[trans-2-phenylcyclopropyl]-4,6-dihydropyrrolo[3,4-c]pyrazole-5(1H)-carboxamide]  780 nM
6. CNC(=O)[C@@H]1CCCN1c1nc(Nc2n[nH]c3c2CN(C(=O)NC2CC2c2ccccc2)C3(C)C)nc(OC)n1 (some centres unmarked) [Example 17]  770 nM
7. CN(C)c1nc(Nc2n[nH]c3c2CN(C(=O)NC2C[C@@H]2c2ccccc2)C3(C)C)nc(N2CCC[C@H]2C(N)=O)n1 (some centres unmarked) [Example 22]  720 nM
8. CC1(C)c2[nH]nc(Nc3cc(C#N)ccn3)c2CN1C(=O)N[C@H]1C[C@@H]1c1ccccc1 (relative stereo) [Example 29, 3-[(4-cyanopyridin-2-yl)amino]-6,6-dimethyl-N-[trans-2-phenylcyclopropyl]-4,6-dihydropyrrolo[3,4-c]pyrazole-5(1H)-carboxamide]  660 nM
9. Cc1cc(C)nc(Nc2n[nH]c3c2CN(C(=O)NC2C[C@@H]2c2ccccc2)C3(C)C)n1 (some centres unmarked) [Example 24]  640 nM
10. CC1(C)c2[nH]nc(Nc3nc(N)nc(Cl)n3)c2CN1C(=O)N[C@@H]1C[C@H]1c1ccccc1 (relative stereo) [Example 8, 3-[(4-amino-6-chloro-1,3,5-triazin-2-yl)amino]-6,6-dimethyl-N-[trans-2-phenylcyclopropyl]-4,6-dihydropyrrolo[3,4-c]pyrazole-5(1H)-carboxamide]  610 nM
11. COc1nc(Nc2n[nH]c3c2CN(C(=O)NC2CC2c2ccccc2)C3(C)C)nc(N2CC2C)n1 (stereo not drawn) [Example 18, 3-{[4-methoxy-6-(2-methylaziridin-1-yl)-1,3,5-triazin-2-yl]amino}-6,6-dimethyl-N-[trans-2-phenylcyclopropyl]-4,6-dihydropyrrolo[3,4-c]pyrazole-5(1H)-carboxamide]  340 nM
12. COc1nc(Nc2n[nH]c3c2CN(C(=O)N[C@H]2C[C@@H]2c2ccccc2)C3(C)C)nc(OC)n1 (relative stereo) [Example 14, 3-[(4,6-dimethoxy-1,3,5-triazin-2-yl)amino]-6,6-dimethyl-N-[trans-2-phenylcyclopropyl]-4,6-dihydropyrrolo[3,4-c]pyrazole-5(1H)-carboxamide]  270 nM
13. CC1(C)c2[nH]nc(Nc3nccc(C(F)(F)F)n3)c2CN1C(=O)N[C@H]1C[C@@H]1c1ccccc1 (relative stereo) [Example 28, 6,6-dimethyl-N-[trans-2-phenylcyclopropyl]-3-{[4-(trifluoromethyl)pyrimidin-2-yl]amino}-4,6-dihydropyrrolo[3,4-c]pyrazole-5(1H)-carboxamide]  270 nM
14. COc1nc(Nc2n[nH]c3c2CN(C(=O)NC2CC2c2ccccc2)C3(C)C)nc(N2CCC[C@H]2C(N)=O)n1 (stereo partly drawn) [Example 21, 3-({4-[(2S)-2-(aminocarbonyl)pyrrolidin-1-yl]-6-methoxy-1,3,5-triazin-2-yl}amino)-6,6-dimethyl-N-[trans-2-phenylcyclopropyl]-4,6-dihydropyrrolo[3,4-c]pyrazole-5(1H)-carboxamide]  240 nM
15. Cc1cc(C(F)(F)F)cc(Nc2n[nH]c3c2CN(C(=O)N[C@H]2C[C@@H]2c2ccccc2)C3(C)C)n1 (relative stereo) [Example 26, 3-[(4-trifluoromethyl-6-methylpyridin-2-yl)amino]-6,6-dimethyl-N-[trans-2-phenylcyclopropyl]-4,6-dihydropyrrolo[3,4-c]pyrazole-5(1H)-carboxamide]  220 nM
16. CC1(C)c2[nH]nc(Nc3cccc(C(F)(F)F)n3)c2CN1C(=O)N[C@H]1C[C@@H]1c1ccccc1 (relative stereo) [Example 27, 3-[(6-trifluoromethylpyridin-2-yl)amino]-6,6-dimethyl-N-[trans-2-phenylcyclopropyl]-4,6-dihydropyrrolo[3,4-c]pyrazole-5(1H)-carboxamide]  200 nM
17. COc1nc(Nc2n[nH]c3c2CN(C(=O)N[C@@H]2C[C@H]2c2ccccc2)C3(C)C)nc(N2CCCC2)n1 (relative stereo) [Example 19, 3-[(4-methoxy-6-pyrrolidin-1-yl-1,3,5-triazin-2-yl)amino]-6,6-dimethyl-N-[trans-2-phenylcyclopropyl]-4,6-dihydropyrrolo[3,4-c]pyrazole-5(1H)-carboxamide]  190 nM
18. CCc1cc(Nc2n[nH]c3c2CN(C(=O)N[C@H](CN(C)C)c2ccccc2)C3(C)C)ncn1 [Example 54, N-[(1S)-2-(Dimethylamino)-1-phenylethyl]-3-[(6-ethylpyrimidin-4-yl)amino]-6,6-dimethyl-4,6-dihydropyrrolo[3,4-c]pyrazole-5(1H)-carboxamide]  140 nM
19. CC1(C)c2[nH]nc(Nc3cc(Cl)nc(Cl)n3)c2CN1C(=O)N[C@H]1C[C@@H]1c1ccccc1 (relative stereo) [Example 4, 3-[(2,6-dichloropyrimidin-4-yl)amino]-6,6-dimethyl-N-[trans-2-phenylcyclopropyl]-4,6-dihydropyrrolo[3,4-c]pyrazole-5(1H)-carboxamide]  110 nM
20. CC1(C)c2[nH]nc(Nc3ncnc4ccccc34)c2CN1C(=O)N[C@@H]1C[C@H]1c1ccccc1 (relative stereo) [Example 85, 3-(quinazolin-4-ylamino)-6,6-dimethyl-N-[trans-2-phenylcyclopropyl]-4,6-dihydropyrrolo[3,4-c]pyrazole-5(1H)-carboxamide]  100 nM
21. Cc1csc2c(Nc3n[nH]c4c3CN(C(=O)N3C[C@@H]5CCCN5C[C@@H]3C)C4(C)C)ncnc12 [Example 81, N-(6,6-dimethyl-5-{[(3S,8aS)-3-methylhexahydropyrrolo[1,2-a]pyrazin-2(1H)-yl]carbonyl}-1,4,5,6-tetrahydropyrrolo[3,4-c]pyrazol-3-yl)-7-methylthieno[3,2-d]pyrimidin-4-amine]  84 nM
22. CC1(C)c2[nH]nc(Nc3nc(C4CC4)nc4ccccc34)c2CN1C(=O)N[C@@H]1C[C@H]1c1ccccc1 (relative stereo) [Example 86, 3-[(2-cyclopropylquinazolin-4-yl)amino]-6,6-dimethyl-N-[trans-2-phenylcyclopropyl]-4,6-dihydropyrrolo[3,4-c]pyrazole-5(1H)-carboxamide]  55 nM
23. Cc1cc2c(Nc3n[nH]c4c3CN(C(=O)O[C@H](CN(C)C)c3ccccc3)C4(C)C)ncnc2s1 [Example 71, (1S)-2-(dimethylamino)-1-phenylethyl 6,6-dimethyl-3-[(6-methylthieno[2,3-d]pyrimidin-4-yl)amino]-4,6-dihydropyrrolo[3,4-c]pyrazole-5(1H)-carboxylate]  5.2 nM
